Test results taken from patent US12630536B2, “Cyanotriazine derivative, preparation method therefor, and application thereof” (Chengdu Fanxi Biopharma Co., LTD., priority 2020, dated 2026).
Where two headings read alike, the source gives them in different places.

Legend:
[1] = target: T1, THR-α ligand-binding domain (H6-THR-α) (Homo sapiens, UniProt P10827); test: Co-activated peptide recruitment test of THR-α/RXR/GRIP1 (TR_LBD agonist detection, HTRF); format: biochemical; conditions: for EC50: Detection of TR_LBD agonist, read-out: TR_α_EC50
T1 construct: made in house; host or cells: Escherichia coli BL21 (DE3), vector pET28a
T1 sequence (P10827 148-410 isoform P10827-2 limits assumed): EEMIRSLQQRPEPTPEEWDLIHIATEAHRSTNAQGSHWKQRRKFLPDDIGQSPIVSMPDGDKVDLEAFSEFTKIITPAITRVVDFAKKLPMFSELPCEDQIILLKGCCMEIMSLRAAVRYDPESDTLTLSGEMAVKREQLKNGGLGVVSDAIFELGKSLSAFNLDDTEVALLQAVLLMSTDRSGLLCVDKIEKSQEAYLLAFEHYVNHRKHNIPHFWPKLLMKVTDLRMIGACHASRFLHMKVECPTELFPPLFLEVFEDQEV
T1 sequence (P19793 225-462 partner limits assumed): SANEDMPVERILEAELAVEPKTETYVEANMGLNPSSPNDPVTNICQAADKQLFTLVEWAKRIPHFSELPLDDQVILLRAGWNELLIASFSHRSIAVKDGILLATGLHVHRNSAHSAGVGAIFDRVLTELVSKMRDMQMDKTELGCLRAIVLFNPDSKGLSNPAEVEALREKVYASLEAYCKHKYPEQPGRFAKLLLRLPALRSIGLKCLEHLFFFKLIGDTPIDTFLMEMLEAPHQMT
T1 sequence (Q15596 679-703 partner limits assumed): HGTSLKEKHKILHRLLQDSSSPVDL
Experimental: (§1) A ligand binding domain of THR-β (amino acids 148-410) (H6-THR-β) and a ligand binding domain of THR-α (amino acids 202-461) (H6-TRα) were cloned into E. coli expression vector pET28a (Novagen, Milwaukee, Wis.) containing N-terminal six His sequences. The resulting recombinant six-His-tagged protein was produced in E. coli BL21(DE3) cells. The cells were grown in Terrific Broth (self-used self-prepared Bacto tryptone (3.3%, w/v), Difico yeast extract (2.0%, w/v) and NaCl (0.5%, w/v) medium), incubated at 25° C. for 24 hours using a shake flask in 0.2 mM IPTG, harvested or dissolved with 5 volumes of buffer A (0.05 M Tris, 0.3 M NaCl, 1% W/V betaine, 0.01 M imidazole, 0.02 M b-mercaptoethanol, pH 8.0). Lysozyme (1.0 mg/ml, Sigma) and CompleteProtease Inhibitor Cocktail (Roche Diagnostics Gmbh) were added to the slurry and the solution was sonicated for one minute and 5 times at 4° C. The suspension was centrifuged at 127,300 RCF for 2 hours in a Ti45 Beckmann rotor and the supernatant was loaded onto an NI NTAAgarose (Quigen 30210) column. After washing with the buffer A, […] or H6-THR-α was eluted with the buffer A containing 0.25 M imidazole.
(§2) 30 microliters of H6-THR-β (50 nM) or H6-THR-α in 50 mM Hepes, pH 7.0, 1 mM DTT, 0.05% NP40 and 0.2 mg/ml BSA (binding buffer) were mixed with an equal volume of EE-RxRα (50 nM) in the binding buffer. […] Aliquot ([…]) was transferred to a 384-well black microtiter plate. HTRF signal was read on a Victor5 reader (PerkinElmer Life and Analytical Sciences). EC50 was calculated.
(§3) Gene clones expressing a ligand-binding domain (amino acids 148-410) of THR-β (H6-THR-β) and a ligand-binding domain (amino acids 202-461) of THR-α (H6-THR-α) were inserted into an Escherichia coli expression vector pET28a, and the expression vector contained one N-terminal 6-His sequence. The expression vector was introduced into an Escherichia coli BL21 (DE3) strain to produce a recombinant protein with a His tag. […] After finishing culturing, a bacterium in culture was collected, and the collected bacterium was resuspended with a lysis solution (0.05 M Tris, 0.3 M NaCl, 1% W/V betaine, 0.01 M imidazole, 0.02 M β-mercaptoethanol, and pH 8.0) with a volume 5 times that of the bacterium, and lysozyme and protease inhibitors were added at the same time, the treated bacteria was subjected to ultrasonic lysis (5 times per minute) in ice bath (4° C.). A lysed suspension was centrifuged at 127300 RCF for 2 hours, a supernatant was loaded on a NI_NTA agarose (Quigen 30210) column, and after washing with a buffer A, an H6-TRβ or H6-TRα protein was eluted with the buffer A containing 0.25 M imidazole.
(§4) A human retinol X receptor (amino acid 225-462) (RxRα) was subjected to engineering modification, so that an N-terminal of the human retinol X receptor had His6 and EE(EFMPME) tags, and then the human retinol X receptor was cloned into a pACYC vector, and produced a His6 EEtagged protein in Escherichia coli. IPTG with a final concentration of 0.1 mM was added into the culture medium for induction, and cultured in a shaking flask at 18° C. for 18 hours. After finishing culturing, a bacterium in culture was collected, and the collected bacterium was re-suspended with a lysis solution (0.05 M Tris, 0.3 M NaCl, 1% W/V betaine, 0.01 M imidazole, 0.02 β-mercaptoethanol, and pH 8.0) with a volume 5 times that of the bacterium, lysozyme and protease inhibitors were added at the same time, and stirred at 4° C. for 30 minutes. Then, a suspension was subjected to an ultrasonic treatment at 4° C. for 30 seconds for 5 times. The suspension was collected, and centrifuged at 12000 RCF for 20 minutes. A supernatant was collected, and the supernatant was filtered with a membrane with a pore size of 0.45 μm, and then added with 0.5% NP-40.

[2] = target: T2, THR-β ligand-binding domain (H6-THR-β) (Homo sapiens, UniProt P10828); test: Co-activated peptide recruitment test of THR-β/RXR/GRIP1 (TR_LBD agonist detection, HTRF); format: biochemical; conditions: for EC50: Detection of TR_LBD agonist, read-out: TR_beta_EC50; for Maximum activity ratio (A520/A495) / Measurement of cpd/T3 (maximum ratio) / α/β: TR_LBD agonist; for Maximum activity ratio (A520/A495) / Measurement of cpd/T3 (maximum ratio): TR_β; for Measurement of cpd/T3 (maximum ratio): maximum relative to T3; for α/β: ratio TR_α EC50 / TR_β EC50
T2 construct: made in house; host or cells: Escherichia coli BL21 (DE3), vector pET28a
T2 sequence (P10828 217-461 limits assumed): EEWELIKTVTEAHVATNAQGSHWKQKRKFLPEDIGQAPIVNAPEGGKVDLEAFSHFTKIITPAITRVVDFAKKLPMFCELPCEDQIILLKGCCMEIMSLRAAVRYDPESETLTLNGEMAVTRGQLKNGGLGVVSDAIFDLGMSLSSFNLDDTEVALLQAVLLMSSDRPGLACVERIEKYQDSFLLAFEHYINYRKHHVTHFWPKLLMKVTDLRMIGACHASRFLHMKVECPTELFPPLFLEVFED
T2 sequence (P19793 225-462 partner limits assumed): T1 sequence (P19793 225-462 partner limits assumed)
T2 sequence (Q15596 679-703 partner limits assumed): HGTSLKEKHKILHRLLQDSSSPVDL
Experimental: as §1, §2, §3, §4

[3] = tested on: TR alpha-UAS-bla HEK 293T Cells; test: TR cell-based agonist detection, β-lactamase reporter (LiveBLAzer FRET B/G), TR alpha; conditions: for EC50: Detection of TR_cell-based agonist, HEK 293T-TR alpha, 24 hours, read-out: TR_α_EC50; for Emax: HEK-293T, 24 h, read-out: Maximum activity ratio
Experimental: (§5) A method for testing a THR-α/β activation activity of a compound by an in-vitro cell level was as follows.
(§6) Compounds were transferred to a 384-well plate by an ECHO liquid workstation, and each compound was diluted by 3 times with 10 gradient concentrations, which was in triplicate. 1.5×10^4 DMEM-cultured cells (TR beta-UAS-bla HEK 293T Cells) or 1.0×10^4 TR alpha-UAS-bla HEK 293T Cells were placed in the 384-well plate. HEK 293T-TR beta was incubated in an incubator for 16 hours, and HEK 293T-TR alpha was incubated in an incubator for 24 hours. A LiveBLAzer™-FRET B/G (CCF4-AM) substrate was added into the cell plate to detect expression of β-lactamase in cells, and under excitation of 409 nm, a product produced fluorescence with a wavelength of 447 nm. When the β-lactamase was not expressed, under excitation of 409 nm, fluorescence with a wavelength of 520 nm was directly produced through FRET. Combination between the compound and the protein was determined by detecting a ratio of the two kinds of fluorescence (blue/green, 460 nm/530 nm), thus calculating EC50 of the compound. […] Calculation of a factor Z (greater than 0.5) would be used for monitoring a stability of each experiment.

[4] = tested on: TR beta-UAS-bla HEK 293T Cells; test: TR cell-based agonist detection, β-lactamase reporter (LiveBLAzer FRET B/G), TR beta; conditions: for EC50: read-out: TR_β_EC50; for Emax: read-out: Maximum activity ratio (A460/A530)
Experimental: as §5, §6

[5] = Homo sapiens, TR_cell-based agonist, TR_α
[6] = Homo sapiens, HEK-293T, 16 h, TR_cell-based agonist, TR_β
[7] = Homo sapiens, Detection of TR_cell-based agonist, HEK 293T-TR beta, 16 hours

EC50 [1] | Maximum activity ratio (A520/A495) ([1]; TR_LBD agonist, TR_α) | Measurement of cpd/T3 (maximum ratio) ([1]; TR_LBD agonist, TR_α, maximum relative to T3) | EC50 [2] | Maximum activity ratio (A520/A495) [2] | Measurement of cpd/T3 (maximum ratio) [2] | α/β [2] | SMILES | EC50 [3] | Maximum activity ratio ([3]; TR_cell-based agonist, TR_α) | EC50 ([4]; Detection of TR_cell-based agonist, HEK 293T-TR beta, 16 hours) | Maximum activity ratio (A460/A530) ([4]; TR_cell-based agonist, TR_β) | Emax [3, 5] | EC50 ([3]; Homo sapiens) | Emax [4, 6] | EC50 [4, 7] | EC50 ([4]; Homo sapiens, HEK-293T, 16 h)
1310 nM | 2.45 | 45.5% | 45.5 nM | 2.69 | 49.1% | 28.81 | N#Cc1nn(-c2cc(Cl)c(Oc3ccc4ncn(CCN5CCCC5)c4c3)c(Cl)c2)c(=O)[nH]c1=O [Compound 5] | > 20000 nM | 0.42 | > 20000 nM | 0.134 | – | – | – | – | –
> 5000 nM | – | – | 13.4 nM | – | 22.6% | – | N#Cc1nn(-c2cc(Cl)c(Oc3ccc4ncn(C5CCN(Cc6ccccc6)C5)c4c3)c(Cl)c2)c(=O)[nH]c1=O (stereo not drawn) [Compound 7, 2-(4-((1-(1-benzylpyrrolidin-3-yl)-1H-benzo[d]imidazol-6-yl)oxy)-3,5-dichlorophenyl)-3,5-dioxo-2,3,4,5-tetrahydro-1,2,4-triazine-6-carbonitrile] | – | – | – | – | 19% | > 20000 nM | 11.6% | > 20000 nM | –
– | – | – | – | – | – | – | N[C@@H](Cc1cc(I)c(Oc2ccc(O)c(I)c2)c(I)c1)C(=O)O [Compound T3, 3,5,3′-tri-iodine-L-thyronine, reference compound] | – | – | – | – | – | 0.055 nM | – | – | 0.325 nM
> 5000 nM | 1.39 | – | 14.8 nM | 1.84 | 33.6% | >337.84 | Cn1c(CCc2ccccc2)nc2cc(Oc3c(Cl)cc(-n4nc(C#N)c(=O)[nH]c4=O)cc3Cl)ccc21 [Compound 9, 2-(3,5-dichloro-4-((1-methyl-2-phenethyl-1H-benzo[d]imidazol-5-yl)oxy)phenyl)-3,5-dioxo-2,3,4,5-tetrahydro-1,2,4-triazine-6-carbonitrile] | – | – | – | – | 31% | > 20000 nM | 20.4% | > 20000 nM | –
